≈ marks a conversion by molar mass, not a printed value. Like-named read-outs stand apart in the source and are kept apart here.
Experiments:
[1] = In vivo tolerability study in uninfected mice; parameters: species or system Swiss mice; conditions: 30 mg/kg single i.v. bolus in NaCl (0.9%)
Experimental: We first performed a tolerability study in uninfected mice by injecting GE81112A at up to 30 mg/kg, formulated in NaCl (0.9%), via intravenous (i.v.) bolus administration.
All animal studies were performed in accordance with relevant guidelines and regulations. A 30 mg/kg dose of GE81112A, formulated in 0.9% NaCl, was administered to noninfected Swiss mice (n = 3), using a single i.v. bolus. Adverse events and animal weights were monitored for 24 h after administration.

CaCo2/TC7 cells = experiment: Cellular permeability assay using the CaCo2/TC7 cell line; type: in vitro ADME, human; conditions: predicted from CaCo2/TC7 permeability
Experimental: (§1) CaCo2/TC7 cells were seeded in a Falcon 24-well multiwell insert system with 1.0-μm-pore high-density polyethylene terephthalate (PET) membrane plates, at a density of 60,000 cells per well in DMEM (high glucose, with Glutamax I, without HEPES, with 20% fetal calf serum [FCS], and with penicillin-streptomycin). The cells were incubated for at least 21 days to ensure complete differentiation, polarization, and formation of a tight barrier layer. Permeability assays were performed in Hanks’ balanced salt solution (HBSS) with sodium taurocholate (186 μM), HEPES (10 mM), and bovine serum albumin (BSA) (0.5% [wt/vol]), adjusted to pH 7.4 with sodium hydroxide (1 N). GE81112A at 1 and 20 μM was assayed for 120 min in the apical-to-basolateral direction with an apical pH of 7.4 and a basolateral pH of 7.4, without a BSA gradient (0.5%) on either side. After the incubation period, apical and basolateral concentrations of GE81112A were determined using liquid chromatography-tandem mass spectrometry (LC-MS/MS).

[2] = as above; type: in vitro ADME, human; conditions: human, Caco-2; 1 or 20 μM, apical-to-basolateral, 120 min, pH 7.4; read-out: Apparent permeability
Experimental: as §1

primary rat hepatocytes = experiment: Cytotoxicity (CellTiter-Glo ATP and neutral red uptake); type: cell-based
Experimental: (§2) The toxicity of GE81112A toward human hepatocellular carcinoma HepG2 HB-8065 (ATCC) cells and freshly isolated primary Sprague-Dawley rat hepatocytes (Charles River) was assessed by using the CellTiter-Glo ATP-monitoring kit (Promega) and by quantifying the ability to store the dye neutral red (neutral red uptake [NRU] solution; Sigma-Aldrich, St. Louis, MO, USA). The assay was conducted in 96-well microtiter plates in a test volume of 200 μL. GE81112A was tested in an 8-fold 1:2 dilution series with a final concentration range of […]. HepG2 cells or primary hepatocytes were maintained at 37°C in 5% CO2 in DMEM-F-12 medium containing 1% nonessential amino acids, 1% sodium pyruvate, and 10% heat-inactivated FCS. Prior to each test, 100 μL of culture medium was added to each well (each containing about 20,000 cells), and the plates were incubated for 16 h as described above. GE81112A was diluted in culture medium to obtain appropriate concentrations and was added to the wells as six replicates. […] After incubation for 24 h as described above, cell viability was calculated either by cell lysis and subsequent luminometric quantification of the ATP concentration in each sample or by measurement of the amount of neutral red taken up by the cells. NRU was measured at 540 nm (Tecan Genios Pro) after 3 h of incubation with NRU solution and subsequent cell lysis. […]

[3] = Chemical stability in the presence of GSH; type: physicochemical; conditions: incubation for 168 h
Experimental: Based on a stock solution of 0.2 mg GE81112A in 1,548 μL methanol, three different samples were prepared in triplets (test mixture: 100 μL stock solution, 2 μL DMSO, and 1 μL DMSO containing 1.5 GSH equivalents; reference sample A: 200 μL stock solution; reference sample B: 200 μL stock solution and 2 μL DMSO). All samples were measured at three different time points (0 h, 24 h, and 168 h) on a MaXis II system (Bruker).

[4] = test system: K. pneumoniae ATCC BAA-2470; conditions: NDM-1 strain
Experimental: (§3) MICs were determined by adapting the protocol from CLSI guidelines (Table 1; [15]). Briefly, from an overnight preculture, 49.2 μL of an inoculum of 5 × 10^5 CFU/mL in MH broth or DMEM was dispensed into 384-well plates, and 0.8 μL of compounds solubilized in dimethyl sulfoxide (DMSO) and serially diluted was added to the bacterial cultures. […] MICs were determined by measurement of the optical density at 600 nm (OD600). The experiments were performed in duplicate. Commercially available strains were obtained from the American Type Culture Collection (ATCC), the German Collection of Microorganisms and Cell Cultures (DSMZ), and the Biological Resource Center of Institut Pasteur (CRBIP).

E. cloacae CIP 105879 = test system: E. cloacae CIP 105879
Experimental: as §3

P. mirabilis DSM4479 = test system: P. mirabilis DSM4479
Experimental: as §3

E. coli ATCC BAA-2471 = conditions: NDM-1 strain
Experimental: as §3

E. coli MG1655 = test system: E. coli MG1655
Experimental: as §3

E. coli DSM 46345 = test system: E. coli DSM 46345
Experimental: as §3

E. cloacae ATCC BAA-2468 = conditions: NDM-1 strain
Experimental: as §3

P. stuartii ATCC 29851 = test system: P. stuartii ATCC 29851
Experimental: as §3

E. coli ATCC BAA-2469 = conditions: NDM-1 strain
Experimental: as §3

[5] = test system: K. pneumoniae ATCC BAA-2342; conditions: KPC strain
Experimental: as §3

HepG2 cells = experiment: Cytotoxicity (CellTiter-Glo ATP and neutral red uptake); type: cell-based, human; conditions: 24 h; highest concentration with cell viability of >80%
Experimental: as §2

Which “Tolerability (signs of toxicity or adverse effects)” value [1] does the source give for `NC(=O)OC[C@@H](O)C[C@H](NC(=O)[C@H]1NCCC[C@H]1O)C(=O)N[C@@H](Cc1c[nH]cn1)C(=O)N[C@H](C(=O)O)[C@H](O)c1cnc(Cl)[nH]1` [GE81112A] here?
Its value is “did not show any sign of toxicity or adverse effects”.

And the “Absorption in the human intestine (predicted)” value (CaCo2/TC7 cells)?
Its value is “low”.

And the Papp at 120 min [2]?
Its Papp at 120 min is 0.028 to 0.316 ×10⁻⁶ cm/s.

And the “No observed effect concentration (NOEC)” value (primary rat hepatocytes; 24 h, highest concentration with cell viability of >80%)?
The value was 15.6 µM.

And the “Overview finding: Cytotoxicity (rat hepatocytes/HepG2 cells)” value (primary rat hepatocytes; Table 3 summary rating)?
Its value is “+/− (to be monitored)”.

What about the “Stability in the presence of glutathione (GSH)” value [3] of the same compound?
The value was “no degradation or formation of adducts”.

And the MIC ([4]; DMEM)?
The MIC was >64 µg/mL.

And the MIC ([4]; MHII)?
The MIC was >64 µg/mL.

What about the MIC (E. cloacae CIP 105879; DMEM) of the same compound?
Its MIC is >64 µg/mL.

What about the MIC (E. cloacae CIP 105879; MHII) of the same compound?
Its MIC is >64 µg/mL.

And the MIC (P. mirabilis DSM4479; DMEM)?
The MIC was 64 µg/mL (≈ 99.4 µM).

What about the MIC (P. mirabilis DSM4479; MHII) of the same compound?
The MIC was >64 µg/mL.

And the MIC (E. coli ATCC BAA-2471; DMEM)?
Its MIC is 4 µg/mL (≈ 6.21 µM).

And the MIC (E. coli ATCC BAA-2471; MHII)?
Its MIC is >64 µg/mL.

And the MIC (E. coli MG1655; DMEM)?
Its MIC is 1 µg/mL (≈ 1.55 µM).

What about the MIC (E. coli MG1655; MHII) of the same compound?
The MIC was >64 µg/mL.

And the MIC (E. coli DSM 46345; DMEM)?
The MIC was >64 µg/mL.

And the MIC (E. coli DSM 46345; MHII)?
The MIC was >64 µg/mL.

And the MIC (E. cloacae ATCC BAA-2468; DMEM)?
Its MIC is >64 µg/mL.

And the MIC (E. cloacae ATCC BAA-2468; MHII)?
The MIC was >64 µg/mL.

And the MIC (P. stuartii ATCC 29851; DMEM)?
The MIC was >64 µg/mL.

And the MIC (P. stuartii ATCC 29851; MHII)?
Its MIC is >64 µg/mL.

And the MIC (E. coli ATCC BAA-2469; DMEM)?
The MIC was >64 µg/mL.

What about the MIC (E. coli ATCC BAA-2469; MHII) of the same compound?
The MIC was >64 µg/mL.

What about the MIC ([5]; DMEM) of the same compound?
The MIC was >64 µg/mL.

And the MIC ([5]; MHII)?
The MIC was >64 µg/mL.

And the “No observed effect concentration (NOEC)” value (HepG2 cells)?
The value was 15.6 µM.

— PMC10269895 (Microbiology Spectrum, 2023)
